Reference: US20250326748A1, “COMPOUNDS AND METHODS FOR MODULATING SPLICING” (REMIX THERAPEUTICS INC., priority 2022, published 2025)
Where a name gives a salt, the structure may show the parent alone. Read-outs that look alike come from different tables or passages of the source.

Tests used:
Assay type in all cases: cell-based, human
[1] = tested on: MYB mRNA; assay: Splicing RT-qPCR assay, MYB canonical (CJ) and alternative (AJ) junction mRNA; conditions: Homo sapiens; for IC50: canonical junction mRNA; for AC50: alternative junction mRNA, read-out: MYB AJ (AC50, increase in AJ mRNA)
Method in brief: (§1)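 Cmpd 24 h, 37 °C/5% CO2; 11-pt 3x serial dilution from 10 uM final; DMSO max 0.25%. Cells: A673 (DMEM/10% FBS, pre-adhered 24 h) or K562 (IMDM/10% FBS). Lyse, DNase I, then 1-step RT-qPCR for CJ and AJ; housekeeping-normalized.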

[2] = tested on: HTT mRNA; assay: Splicing RT-qPCR assay, HTT canonical (CJ) and alternative (AJ) junction mRNA; conditions: Homo sapiens; for IC50: canonical junction mRNA; for AC50: alternative junction mRNA, read-out: HTT AJ (AC50, increase in AJ mRNA)
Method in brief: as §1

[3] = tested on: Target C mRNA; assay: Splicing RT-qPCR panel, Target C canonical junction (CJ) mRNA; conditions: Homo sapiens, read-out: Target C CJ (decrease in CJ mRNA levels, IC50)
Method in brief: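 A673 cells (DMEM, 10% FBS) or K562 cells (IMDM, 10% FBS) treated 24 h at 37 °C with an 11-point 3-fold dilution, top 10 uM, DMSO ≤0.25%. Canonical-junction mRNA quantified in lysates by RT-qPCR, normalised to GAPDH, GUSB or PPIA and to DMSO (2^−ΔΔCt), then converted to % response.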

[4] = qPCR panel, read-out: MYB CJ (decrease in CJ mRNA levels, IC50)
[5] = RT-qPCR, A673 or K562 cells, 24 hours treatment
[6] = RT-qPCR, A673 or K562 cells, 24 hours treatment, read-out: MYB CJ (IC50, decrease in CJ mRNA)
[7] = 24 h, RT-qPCR, A673 or K562 cells, 24 hours treatment, read-out: HTT CJ (IC50, decrease in CJ mRNA)
[8] = qPCR panel, read-out: HTT CJ (decrease in CJ mRNA levels, IC50)

| SMILES | IC50 [1, 4] [µM] | IC50 [1, 6] [µM] | IC50 [2, 7] [µM] | IC50 [2, 8] [µM] | IC50 [3] [µM] | AC50 [1, 5] [µM] | AC50 [2, 5] [µM] |
| --- | --- | --- | --- | --- | --- | --- | --- |
| CN1CCC[C@@H]2CN(c3cnc4nc(-c5cc6cn(C)nc6c(F)c5O)cc(Cl)c4c3)C[C@@H]21 [Compound 303] | 0.1 to 1 | 0.1 to 1 | 0.1 to 1 | 0.1 to 1 | > 10 | 0.1 to 1 | > 10 |
| CN1CCC[C@H]2CN(c3cnc4nc(-c5cc6cn(C)nc6c(F)c5O)cc(Cl)c4c3)C[C@H]21 [Compound 304] | 0.1 to 1 | 0.1 to 1 | 1 to 10 | 1 to 10 | > 10 | 0.1 to 1 | 1 to 10 |
| C[C@@H]1CN(c2cnc3nc(-c4cc5cn(C)nc5c(F)c4O)cc(C4CC4)c3c2)C[C@H](C)N1 [Compound 305, 5-{4-cyclopropyl-6-[(3R,5S)-3,5-dimethylpiperazin-1-yl]-1,8-naphthyridin-2-yl}-7-fluoro-2-methylindazol-6-ol] | 0.1 to 1 | 0.1 to 1 | 1 to 10 | 1 to 10 | > 10 | 0.1 to 1 | 1 to 10 |
| CCN[C@H]1CCN(c2cnc3nc(-c4cc5cn(C)nc5cc4O)ccc3c2)C1 [Compound 311, 5-{6-[(3S)-3-(ethylamino)pyrrolidin-1-yl]-1,8-naphthyridin-2-yl}-2-methylindazol-6-ol hydrochloride] | 0.1 to 1 | 0.1 to 1 | 0.1 to 1 | 0.1 to 1 | 1 to 10 | 0.1 to 1 | 1 to 10 |
| Cn1cc2cc(-c3ccc4cc(N5CC[C@@H](NCC6CC6)C5)cnc4n3)c(O)cc2n1 [Compound 313] | 0.1 to 1 | 0.1 to 1 | 0.1 to 1 | 0.1 to 1 | 0.1 to 1 | < 0.1 | 0.1 to 1 |
| Cn1cc2cc(-c3ccc4cc(N5CC[C@H](NCC6CC6)C5)cnc4n3)c(O)cc2n1 [Compound 314] | 0.1 to 1 | 0.1 to 1 | 0.1 to 1 | 0.1 to 1 | 1 to 10 | 0.1 to 1 | 0.1 to 1 |
| CN(C)C1CCN(c2cnc3nc(-c4cc5cn(C)nc5cc4O)ccc3c2)CC1 [Compound 316] | 0.1 to 1 | 0.1 to 1 | 1 to 10 | 1 to 10 | 1 to 10 | 0.1 to 1 | 1 to 10 |
| C[C@@H]1CN(c2cnc3nc(-c4ccc5nn(C)cc5c4)cc(Cl)c3c2)C[C@H](C)N1 [Compound 320, 4-chloro-6-[(3R,5S)-3,5-dimethylpiperazin-1-yl]-2-(2-methylindazol-5-yl)-1,8-naphthyridine] | 1 to 10 | 1 to 10 | > 10 | > 10 | > 10 | 1 to 10 | > 10 |
| C[C@@H]1CN(c2cnc3nc(-c4cc(C#N)c5nn(C)cc5c4)cc(Cl)c3c2)C[C@H](C)N1 [Compound 325, 5-(4-chloro-6-((3R,5S)-3,5-dimethylpiperazin-1-yl)-1,8-naphthyridin-2-yl)-2-methyl-2H-indazole-7-carbonitrile 2,2,2-trifluoroacetate] | 0.1 to 1 | 0.1 to 1 | > 10 | > 10 | > 10 | 1 to 10 | > 10 |
| Cc1cn2nc(-c3ccc4cc(N5C[C@@H](C)N[C@@H](C)C5)cnc4n3)cc(C)c2n1 [Compound 330] | 0.1 to 1 | 0.1 to 1 | 0.1 to 1 | 0.1 to 1 | 0.1 to 1 | 0.1 to 1 | 0.1 to 1 |
| Cc1cn2nc(-c3cc(Cl)c4cc(N5C[C@@H](C)N[C@@H](C)C5)cnc4n3)cc(C)c2n1 [Compound 335, 4-chloro-2-{2,8-dimethylimidazo[1,2-b]478pyridazine-6-yl}-6-[(3R,5S)-3,5-dimethylpiperazin-1-yl]-1,8-naphthyridine] | 0.1 to 1 | 0.1 to 1 | 0.1 to 1 | 0.1 to 1 | 1 to 10 | 0.1 to 1 | 1 to 10 |
| C[C@@H]1CN(c2cnc3nc(-c4cc5cn(C)nc5cc4O)ccc3c2)C[C@H](C)N1 [Compound 343] | 0.1 to 1 | 0.1 to 1 | 0.1 to 1 | 1 to 10 | 1 to 10 | 0.1 to 1 | 1 to 10 |

More lines, main results first:

| IC50 [1, 4] [µM] | IC50 [1, 6] [µM] | IC50 [2, 7] [µM] | IC50 [2, 8] [µM] | IC50 [3] [µM] | SMILES | AC50 [1, 5] [µM] | AC50 [2, 5] [µM] |
| --- | --- | --- | --- | --- | --- | --- | --- |
| < 0.1 | < 0.1 | 0.1 to 1 | 0.1 to 1 | 1 to 10 | Cc1cn2cc(-c3cc(Cl)c4cc(N5C[C@H](C)N[C@@H](C)C5)cnc4n3)cc(F)c2n1 [Compound 298] | < 0.1 | 0.1 to 1 |
| 0.1 to 1 | 0.1 to 1 | 1 to 10 | 1 to 10 | > 10 | Cc1c(O)c(-c2ccc3c(C(F)(F)F)c(N4CCNCC4)cnc3n2)cc2cn(C)nc12 [Compound 302, 2,7-dimethyl-5-[6-(piperazin-1-yl)-5-(trifluoromethyl)-1,8-naphthyridin-2-yl]indazol-6-ol] | 0.1 to 1 | > 10 |
| < 0.1 | < 0.1 | < 0.1 | < 0.1 | 0.1 to 1 | CCN[C@@H]1CCN(c2cnc3nc(-c4cc5cn(C)nc5cc4O)ccc3c2)C1 [Compound 310, 5-{6-[(3R)-3-(ethylamino)468pyrrolidine-1-yl]-1,8-naphthyridin-2-yl}-2-methylindazol-6-ol hydrochloride] | < 0.1 | 0.1 to 1 |
| < 0.1 | < 0.1 | < 0.1 | < 0.1 | < 0.1 | CCN[C@@H]1CCN(c2cnc3nc(-c4cc5cn(C)nc5cc4O)cc(Cl)c3c2)C1 [Compound 317] | < 0.1 | < 0.1 |
| < 0.1 | < 0.1 | 0.1 to 1 | 0.1 to 1 | 1 to 10 | CCN[C@H]1CCN(c2cnc3nc(-c4cc5cn(C)nc5cc4O)cc(Cl)c3c2)C1 [Compound 318] | < 0.1 | 1 to 10 |
| < 0.1 | < 0.1 | 0.1 to 1 | 0.1 to 1 | 1 to 10 | Cc1cn2nc(-c3cc(Cl)c4cc(N5C[C@H](C)N[C@@H](C)C5)cnc4n3)cc(C)c2n1 [Compound 336] | < 0.1 | 0.1 to 1 |
| < 0.1 | < 0.1 | 0.1 to 1 | 0.1 to 1 | 1 to 10 | CN[C@H]1CCN(c2cnc3nc(-c4cc(C)c5nc(C)cn5n4)cc(Cl)c3c2)C1 [Compound 340] | 0.1 to 1 | 0.1 to 1 |
| < 0.1 | < 0.1 | < 0.1 | < 0.1 | 0.1 to 1 | CN[C@@H]1CCN(c2cnc3nc(-c4cc(C)c5nc(C)cn5n4)cc(Cl)c3c2)C1 [Compound 341] | < 0.1 | < 0.1 |
